Data reported in patent US20170066759A1, “AROMATIC 5-MEMBERED HETEROCYCLIC DERIVATIVE HAVING TRPV4-INHIBITING ACTIVITY” (Shionogi & Co., Ltd., priority 2012, published 2017).

How the values were obtained:
CYP2C9 = target: T1, CYP2C9 (Homo sapiens, UniProt P11712); test: Test Example 6: CYP inhibition test, tolbutamide methyl-hydroxylation (CYP2C9); assay type: in vitro ADME; conditions: pooled human hepatic microsome, 100 μmol/L tolbutamide
T1 construct: enzyme, pooled human hepatic microsome 0.2 mg protein/mL; from tissue; host or cells: pooled human liver microsomes
T1 sequence (P11712 whole entry): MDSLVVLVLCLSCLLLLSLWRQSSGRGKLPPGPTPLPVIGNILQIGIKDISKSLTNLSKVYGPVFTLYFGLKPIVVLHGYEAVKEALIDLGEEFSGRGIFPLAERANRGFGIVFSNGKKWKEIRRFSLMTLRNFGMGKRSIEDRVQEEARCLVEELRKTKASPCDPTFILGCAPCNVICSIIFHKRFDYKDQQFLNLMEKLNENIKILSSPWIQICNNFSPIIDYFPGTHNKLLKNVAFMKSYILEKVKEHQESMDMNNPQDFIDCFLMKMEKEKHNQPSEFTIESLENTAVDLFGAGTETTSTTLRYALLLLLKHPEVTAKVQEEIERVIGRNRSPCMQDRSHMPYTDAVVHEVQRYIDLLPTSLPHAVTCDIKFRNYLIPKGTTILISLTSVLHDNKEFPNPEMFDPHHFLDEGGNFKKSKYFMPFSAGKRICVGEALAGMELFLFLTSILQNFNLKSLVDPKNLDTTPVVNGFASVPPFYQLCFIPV
Experimental: (§1) Test Example 6 CYP Inhibition Test […] The reaction conditions were as follows: substrate, 0.5 μmol/L ethoxyresorufin (CYP1A2), 100 μmol/L tolbutamide (CYP2C9), 50 μmol/L S-mephenytoin (CYP2C19), 5 μmol/L dextromethorphan (CYP2D6), 1 μmol/L terfenedine (CYP3A4); reaction time, 15 minutes; reaction temperature, 37° C.; enzyme, pooled human hepatic microsome 0.2 mg protein/mL; concentration of the compound of the present invention, 1, 5, 10, 20 μmol/L (four points). Each five kinds of substrates, human hepatic microsome, and the compound of the present invention in 50 mmol/L Hepes buffer as a reaction solution were added to a 96-well plate at the composition as described above. NADPH, as a cofactor was added to initiate metabolism reactions as markers and, after the incubation at 37° C. for 15 minutes, a methanol/acetonitrile=1/1 (v/v) solution was added to stop the reaction. After the centrifugation at 3000 rpm for 15 minutes, resorufin (CYP1A2 metabolite) in the supernatant was quantified by a fluorescent multilabel counter and toltributamide hydroxide (CYP2[…] metabolite), mephenytoin 4' hydroxide (CYP2C19 metabolite), […], and terfenadine alcohol (CYP3A4 metabolite) were quantified by LC/MS/MS. Addition of only DMSO being a solvent dissolving the compound of the present invention to a reaction system was adopted as a control (100%). Remaining activity (%) was calculated at each concentration of the compound of the present invention added as the solution and IC50 was calculated by reverse presumption by a logistic model using a concentration and an inhibition rate.

CYP2C19 = target: T2, CYP2C19 (Homo sapiens, UniProt P33261); test: Test Example 6: CYP inhibition test, mephenytoin 4′-hydroxylation (CYP2C19); assay type: in vitro ADME; conditions: pooled human hepatic microsome, 50 μmol/L S-mephenytoin
T2 construct: enzyme, pooled human hepatic microsome 0.2 mg protein/mL; from tissue; host or cells: pooled human liver microsomes
T2 sequence (P33261 whole entry): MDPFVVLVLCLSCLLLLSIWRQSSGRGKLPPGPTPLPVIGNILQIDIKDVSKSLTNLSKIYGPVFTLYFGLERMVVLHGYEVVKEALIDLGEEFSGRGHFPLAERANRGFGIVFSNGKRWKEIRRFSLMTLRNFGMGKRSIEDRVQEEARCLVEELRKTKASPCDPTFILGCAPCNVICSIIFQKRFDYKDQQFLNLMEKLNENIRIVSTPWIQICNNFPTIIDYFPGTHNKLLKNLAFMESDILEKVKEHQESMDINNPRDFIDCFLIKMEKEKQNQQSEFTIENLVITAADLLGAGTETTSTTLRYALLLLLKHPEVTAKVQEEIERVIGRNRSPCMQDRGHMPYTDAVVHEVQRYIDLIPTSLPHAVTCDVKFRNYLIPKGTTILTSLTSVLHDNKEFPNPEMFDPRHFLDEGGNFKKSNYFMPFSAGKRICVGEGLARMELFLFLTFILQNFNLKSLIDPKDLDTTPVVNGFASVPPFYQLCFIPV
Experimental: as §1

CYP1A2 = target: T3, CYP1A2 (Homo sapiens, UniProt P05177); test: Test Example 6: CYP inhibition test, 7-ethoxyresorufin O-deethylation (CYP1A2); assay type: in vitro ADME; conditions: pooled human hepatic microsome, 0.5 μmol/L ethoxyresorufin
T3 construct: enzyme, pooled human hepatic microsome 0.2 mg protein/mL; from tissue; host or cells: pooled human liver microsomes
T3 sequence (P05177 1-516): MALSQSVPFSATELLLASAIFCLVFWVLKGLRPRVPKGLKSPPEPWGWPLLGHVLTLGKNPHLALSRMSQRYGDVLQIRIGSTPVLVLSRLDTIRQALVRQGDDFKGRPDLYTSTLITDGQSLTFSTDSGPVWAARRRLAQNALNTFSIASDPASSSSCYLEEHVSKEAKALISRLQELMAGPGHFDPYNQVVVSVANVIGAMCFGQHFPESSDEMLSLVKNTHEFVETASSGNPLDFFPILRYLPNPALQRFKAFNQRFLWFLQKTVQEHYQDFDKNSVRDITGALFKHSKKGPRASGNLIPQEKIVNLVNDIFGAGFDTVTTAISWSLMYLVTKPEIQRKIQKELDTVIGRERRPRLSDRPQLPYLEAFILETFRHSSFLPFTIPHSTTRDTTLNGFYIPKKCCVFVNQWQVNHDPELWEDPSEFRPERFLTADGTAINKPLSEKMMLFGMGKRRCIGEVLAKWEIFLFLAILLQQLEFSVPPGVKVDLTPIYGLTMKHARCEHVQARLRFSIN
Experimental: as §1

CYP3A4 = target: T4, CYP3A4 (Homo sapiens, UniProt P08684); test: Test Example 6: CYP inhibition test, terfenedine hydroxylation (CYP3A4); assay type: in vitro ADME; conditions: pooled human hepatic microsome, 1 μmol/L terfenedine
T4 construct: enzyme, pooled human hepatic microsome 0.2 mg protein/mL; from tissue; host or cells: pooled human liver microsomes
T4 sequence (P08684 whole entry): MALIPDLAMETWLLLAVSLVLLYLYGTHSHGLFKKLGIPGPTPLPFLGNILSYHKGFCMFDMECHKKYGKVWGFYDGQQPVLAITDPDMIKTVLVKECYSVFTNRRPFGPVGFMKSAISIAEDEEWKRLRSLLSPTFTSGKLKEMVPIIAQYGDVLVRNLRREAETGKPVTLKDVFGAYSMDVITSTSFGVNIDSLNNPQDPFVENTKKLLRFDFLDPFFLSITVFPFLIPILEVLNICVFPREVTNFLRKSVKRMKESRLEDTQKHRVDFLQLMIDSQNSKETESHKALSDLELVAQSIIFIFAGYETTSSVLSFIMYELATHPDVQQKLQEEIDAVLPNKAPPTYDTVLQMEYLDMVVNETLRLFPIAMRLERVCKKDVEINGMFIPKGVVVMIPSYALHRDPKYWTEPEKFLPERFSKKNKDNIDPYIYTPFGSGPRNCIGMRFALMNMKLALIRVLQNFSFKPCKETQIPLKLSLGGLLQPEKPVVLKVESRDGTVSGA
Experimental: as §1

[1] = tested on: Salmonella typhimurium TA98 strain, TA100 strain; test: Test Example 7: FAT test (mutagenicity); parameters: key: (−) means that mutagenicity is negative; (+) is positive; conditions: TA98 and TA100 strains, non-metabolism activating and metabolism activating conditions
Experimental: Mutagenicity of a compound of the present invention was evaluated.
[…] of freezing-stored rat typhoid bacillus (Salmonella typhimurium TA98 strain, TA100 strain) was inoculated on 10 mL of a liquid nutrient medium (2.5% Oxoid nutrient broth No. 2), and this was cultured before shaking at 37° C. for 10 hours. 9 mL of a bacterial solution of the TA98 strain was centrifuged (2000×g, 10 minutes) to remove a culturing solution. The bacteria was suspended in 9 mL of a Micro F buffer (K2HPO4: 3.5 g/L, KH2PO4: 1 g/L, (NH4)2SO4: 1 g/L, trisodium citrate dehydrate: 0.25 g/L, MgSO4*7H2O: 0.1 g/L), the suspension was added to 110 mL of an Exposure medium (Micro F buffer containing Biotin: 8 μg/mL, histidine: 0.2 μg/mL, glucose: 8 mg/mL). The TA100 strain was added to 120 mL of the Exposure medium relative to 3.16 mL of the bacterial solution to prepare a test bacterial solution. […] Since a well containing a bacterium which has obtained the proliferation ability by mutation of an amino acid (histidine) synthesizing enzyme gene turns from purple to yellow due to a pH change, the bacterium proliferation well which has turned to yellow in 48 wells per dose was counted, and was assessed by comparing with a negative control group. […]

Compound	IC50 (CYP2C9) [µM]	IC50 (CYP2C19) [µM]	IC50 (CYP1A2) [µM]	IC50 (CYP3A4) [µM]	Mutagenicity (FAT test) [1]
Cc1nc(C)c(-c2csc(NC(=O)Cc3ccc(S(C)(=O)=O)cc3)n2)s1 [Compound I-17]	> 20	> 20	> 20	> 20	–
Cc1nc(C)c(-c2csc(NC(=O)C3CCC(F)(F)C3)n2)s1 (centres unmarked) [Compound I-18]	–	–	–	–	(−)
